Test results: patent publication US10563263B2, “Genetic polymorphisms associated with statin response and cardiovascular diseases, methods of detection and uses thereof” (CELERA CORPORATION, priority 2010, dated 2020)

System: CHD
Assay: Meta-analysis of CARE and WOSCOPS combined, synergy index, CHD endpoint
Format: in vivo, human
Text: Tables 4-5 provide meta-analyses of CARE and WOSCOPS combined (2nd section of each table) for two endpoints (CHD and CVD) and three genetic models (dominant, recessive, and additive), as well as logistic regression analyses of CARE (3rd section of each table) and WOSCOPS (4th section of each table) individually.
Tables 12 and 17 provide results of meta-analysis of the CARE and WOSCOPS sample sets combined by direct genotyping and by imputing genotypes.
“P” indicates the p-value, and “P(R)” (or “P.R.”) indicates the p-value random effect. Both of these are p-values corresponding to a statistical test of whether the combined synergy index is equal to one but use different assumptions to derive the p-value. “P” is calculated using a fixed effects model, and “P(R)” is calculated using a random effects model.
“OR” indicates the odds ratio (synergy index) calculated from a fixed effects model, and “OR(R)” (or “OR.R.”) indicates the odds ratio (synergy index) calculated from a random effects model.

[1] = SNP rs1321432, allele (A1) A, RECESSIVE, Imputed
[2] = SNP rs1321457, allele (A1) G, RECESSIVE, Imputed
[3] = SNP rs1336382, allele (A1) T, DOMINANT, Imputed
[4] = SNP rs1336383, allele (A1) T, DOMINANT, Imputed
[5] = SNP rs1336407, allele (A1) T, DOMINANT, Imputed
[6] = SNP rs1336409, allele (A1) T, DOMINANT, Imputed
[7] = SNP rs1336596, allele (A1) A, DOMINANT, Imputed
[8] = SNP rs1343560, allele (A1) T, ADDITIVE, Imputed
[9] = SNP rs1343560, allele (A1) T, DOMINANT, Imputed
[10] = SNP rs1361987, allele (A1) T, GENOTYPIC, Imputed
[11] = SNP rs12923993, allele (A1) C, DOMINANT, Imputed
[12] = SNP rs12936964, allele (A1) T, DOMINANT, Imputed
[13] = SNP rs12960663, allele (A1) G, ADDITIVE, Imputed
[14] = SNP rs13038146, allele (A1) C, ADDITIVE, Imputed
[15] = SNP rs13038146, allele (A1) C, GENOTYPIC, Imputed
[16] = SNP rs13134222, allele (A1) A, GENOTYPIC, Imputed
[17] = SNP rs13172910, allele (A1) A, DOMINANT, Imputed
[18] = SNP rs13194907, allele (A1) A, ADDITIVE, Imputed
[19] = SNP rs13194907, allele (A1) A, DOMINANT, Imputed
[20] = SNP rs13195745, allele (A1) A, ADDITIVE, Imputed
[21] = SNP rs13195745, allele (A1) A, DOMINANT, Imputed
[22] = SNP rs13265054, allele (A1) T, DOMINANT, Imputed
[23] = SNP rs13282131, allele (A1) C, GENOTYPIC, Imputed
[24] = SNP rs13353526, allele (A1) C, DOMINANT, Imputed
[25] = rs1003148 allele C RECESSIVE Imputed
[26] = rs1008705 allele C DOMINANT Imputed
[27] = rs1149350 allele A DOMINANT Imputed
[28] = rs1150143 allele G DOMINANT Imputed
[29] = rs1204522 allele C GENOTYPIC Imputed
[30] = rs1204524 allele A GENOTYPIC Imputed
[31] = rs1232298 allele G RECESSIVE Imputed
[32] = rs1247340 allele C DOMINANT Imputed
[33] = rs1247341 allele C DOMINANT Imputed
[34] = rs10046799 allele C ADDITIVE Imputed
[35] = rs10046799 allele C GENOTYPIC Imputed
[36] = rs10051148 allele C DOMINANT Imputed
[37] = rs10054055 allele T DOMINANT Imputed

Structure (SMILES): CC[C@H](C)C(=O)O[C@H]1C[C@H](O)C=C2C=C[C@H](C)[C@H](CC[C@@H](O)C[C@@H](O)CC(=O)O)[C@H]21 [Pravastatin, pravastatin]
- OR [1]: 2.1221
- OR(R) [1]: 2.1221
- OR [2]: 2.0656
- OR(R) [2]: 2.0656
- OR [3]: 1.6135
- OR(R) [3]: 1.6135
- OR [4]: 1.6135
- OR(R) [4]: 1.6135
- OR [5]: 1.6135
- OR(R) [5]: 1.6135
- OR [6]: 1.6085
- OR(R) [6]: 1.6059
- OR [7]: 0.5951
- OR(R) [7]: 0.5951
- OR [8]: 0.5393
- OR(R) [8]: 0.5393
- OR [9]: 0.5034
- OR(R) [9]: 0.5034
- OR [10]: 0.4404
- OR(R) [10]: 0.4404
- OR [11]: 1.4572
- OR(R) [11]: 1.4572
- OR [12]: 1.6688
- OR(R) [12]: 1.6688
- OR [13]: 0.6241
- OR(R) [13]: 0.6241
- OR [14]: 1.3708
- OR(R) [14]: 1.3708
- OR [15]: 1.9308
- OR(R) [15]: 1.9308
- OR [16]: 0.3011
- OR(R) [16]: 0.3011
- OR [17]: 0.6547
- OR(R) [17]: 0.6547
- OR [18]: 2.303
- OR(R) [18]: 2.303
- OR [19]: 2.505
- OR(R) [19]: 2.505
- OR [20]: 2.303
- OR(R) [20]: 2.303
- OR [21]: 2.505
- OR(R) [21]: 2.505
- OR [22]: 0.6144
- OR(R) [22]: 0.6144
- OR [23]: 1.8412
- OR(R) [23]: 1.8412
- OR [24]: 1.9371
- OR(R) [24]: 1.9371
- Meta-analysis OR (rs1948 allele A vs G (ref)): 1.66
- Meta-analysis OR (rs151806 allele G vs A (ref)): 0.63
- Meta-analysis OR (rs205279 allele A vs G (ref)): 1.81
- Meta-analysis OR (rs238272 allele A vs G (ref)): 1.45
- Meta-analysis OR (rs312929 allele G vs A (ref)): 0.75
- Meta-analysis OR (rs316720 allele G vs A (ref)): 0.71
- Meta-analysis OR (rs331555 allele A vs C (ref)): 0.74
- Meta-analysis OR (rs354342 allele A vs G (ref)): 0.67
- Meta-analysis OR (rs453625, allele A1 A (non-ref), A2 G (ref), endpoint/model not given): 0.62
- Meta-analysis OR (rs610118 allele G vs A (ref)): 0.49
- Meta-analysis OR (rs669684 allele G vs A (ref)): 0.72
- Meta-analysis OR (rs842796 allele A vs G (ref)): 1.59
- Meta-analysis OR (rs886469 allele G vs A (ref)): 0.64
- Meta-analysis OR (rs969356 allele G vs A (ref)): 0.63
- OR [25]: 0.5819
- OR(R) [25]: 0.5829
- OR [26]: 1.4761
- OR(R) [26]: 1.4761
- Meta-analysis OR (rs1035618 allele A vs C (ref)): 1.42
- Meta-analysis OR (rs1076733, allele A1 A (non-ref), A2 G (ref), endpoint/model not given): 0.67
- OR [27]: 1.6713
- OR(R) [27]: 1.6713
- OR [28]: 1.6852
- OR(R) [28]: 1.6852
- Meta-analysis OR (rs1182878, allele A1 A (non-ref), A2 G (ref), endpoint/model not given): 0.78
- OR [29]: 0.4353
- OR(R) [29]: 0.4353
- OR [30]: 0.4351
- OR(R) [30]: 0.4351
- OR [31]: 2.0566
- OR(R) [31]: 2.0955
- OR [32]: 1.6742
- OR(R) [32]: 1.6742
- OR [33]: 1.684
- OR(R) [33]: 1.684
- Meta-analysis OR (rs1343563 allele C vs A (ref)): 0.60
- Meta-analysis OR (rs1349282 allele A vs G (ref)): 0.55
- Meta-analysis OR (rs1382787 allele G vs A (ref)): 1.35
- Meta-analysis OR (rs1474396, allele A1 A (non-ref), A2 C (ref), endpoint/model not given): 1.46
- Meta-analysis OR (rs1615197 allele G vs A (ref)): 1.80
- Meta-analysis OR (rs1884897 allele A vs G (ref)): 2.07
- Meta-analysis OR (rs2008165 allele G vs A (ref)): 0.59
- Meta-analysis OR (rs2023650 allele A vs G (ref)): 0.71
- Meta-analysis OR (rs2060411 allele A vs G (ref)): 1.39
- Meta-analysis OR (rs2104506 allele A vs C (ref)): 0.71
- Meta-analysis OR (rs2129571, allele A1 A (non-ref), A2 G (ref), endpoint/model not given): 0.53
- Meta-analysis OR (rs2145540 allele A vs G (ref)): 0.56
- Meta-analysis OR (rs2268650 allele A vs G (ref)): 0.66
- Meta-analysis OR (rs2273816 allele A vs G (ref)): 1.61
- Meta-analysis OR (rs2290193, allele A1 C (non-ref), A2 A (ref), endpoint/model not given): 0.47
- Meta-analysis OR (rs2376764 allele A vs G (ref)): 0.56
- Meta-analysis OR (rs2418412 allele G vs A (ref)): 1.94
- Meta-analysis OR (rs2483641, allele A1 A (non-ref), A2 G (ref), endpoint/model not given): 0.59
- Meta-analysis OR (rs2534752 allele G vs A (ref)): 1.65
- Meta-analysis OR (rs2626130 allele G vs A (ref)): 1.32
- Meta-analysis OR (rs2695026 allele A vs G (ref)): 0.67
- Meta-analysis OR (rs2793086 allele C vs A (ref)): 0.65
- Meta-analysis OR (rs2941528 allele A vs G (ref)): 0.67
- Meta-analysis OR (rs3000490 allele G vs A (ref)): 1.38
- Meta-analysis OR (rs3213616 allele A vs G (ref)): 0.62
- Meta-analysis OR (rs3732788 allele G vs A (ref)): 0.51
- Meta-analysis OR (rs3798544 allele A vs G (ref)): 1.57
- Meta-analysis OR (rs3998860 allele A vs G (ref)): 0.61
- Meta-analysis OR (rs4289236 allele A vs G (ref)): 1.41
- Meta-analysis OR (rs4611134 allele A vs G (ref)): 1.55
- Meta-analysis OR (rs4643388 allele G vs A (ref)): 1.34
- Meta-analysis OR (rs4682522 allele C vs A (ref)): 0.55
- Meta-analysis OR (rs4830819 allele G vs A (ref)): 0.60
- Meta-analysis OR (rs4869033 allele G vs A (ref)): 0.36
- Meta-analysis OR (rs4924215 allele A vs G (ref)): 1.65
- Meta-analysis OR (rs4986146 allele A vs G (ref)): 0.63
- Meta-analysis OR (rs4993917 allele A vs C (ref)): 0.60
- Meta-analysis OR (rs5017584 allele A vs G (ref)): 1.74
- Meta-analysis OR (rs6075209 allele A vs G (ref)): 0.64
- Meta-analysis OR (rs6080603 allele A vs C (ref)): 0.62
- Meta-analysis OR (rs6491586 allele G vs A (ref)): 1.65
- Meta-analysis OR (rs6505669 allele G vs A (ref)): 1.58
- Meta-analysis OR (rs6911817, allele A1 A (non-ref), A2 G (ref), endpoint/model not given): 2.85
- Meta-analysis OR (rs7094941, allele A1 G (non-ref), A2 A (ref), endpoint/model not given): 0.74
- Meta-analysis OR (rs7179134 allele A vs G (ref)): 3.52
- Meta-analysis OR (rs7193741 allele A vs C (ref)): 2.04
- Meta-analysis OR (rs7327364 allele A vs G (ref)): 0.68
- Meta-analysis OR (rs7497613, allele A1 A (non-ref), A2 G (ref), endpoint/model not given): 0.55
- Meta-analysis OR (rs7616936, allele A1 C (non-ref), A2 A (ref), endpoint/model not given): 1.77
- Meta-analysis OR (rs7705993 allele G vs A (ref)): 1.48
- Meta-analysis OR (rs7767024, allele A1 A (non-ref), A2 G (ref), endpoint/model not given): 1.42
- Meta-analysis OR (rs7910196, allele A1 G (non-ref), A2 A (ref), endpoint/model not given): 1.47
- Meta-analysis OR (rs8051893 allele A vs G (ref)): 0.67
- Meta-analysis OR (rs8109631 allele A vs G (ref)): 1.53
- Meta-analysis OR (rs9375683 allele G vs A (ref)): 1.49
- Meta-analysis OR (rs9436636 allele A vs G (ref)): 1.35
- Meta-analysis OR (rs9446187 allele A vs G (ref)): 1.96
- Meta-analysis OR (rs9658127, allele A1 A (non-ref), A2 G (ref), endpoint/model not given): 2.79
- OR [34]: 0.724
- OR(R) [34]: 0.7134
- OR [35]: 0.5342
- OR(R) [35]: 0.5221
- OR [36]: 0.5783
- OR(R) [36]: 0.5783
- OR [37]: 0.5791
- OR(R) [37]: 0.5791
- OR (rs10067895 allele A DOMINANT Imputed): 0.5759
